The values below come from patent publication US7524860B2, “Antibacterial agents” (Pfizer Inc., priority 2004, dated 2009).

≈ marks a conversion by molar mass, not a printed value. Where two headings read alike, the source gives them in different places.

The subject of the experiment is Neisseria gonorrhoeae, GC525 (NG-2888). Kind of experiment: in-vitro antibacterial activity, microbroth dilution MIC susceptibility testing. Format: cell-based. Set-up: unit: ug/mL. To be noted: microbroth dilution in gonococcal broth, 20-24 hours at 35 C, lowest concentration preventing visible growth. On the procedure:
The in-vitro antibacterial activity of selected compounds was determined against a stain of Neisseria gonorrhoeae, GC525 (NG-2888), which is described by Rouquette-Loughlin et al, in Journal of Bacteriology, February 2003, p. 1101-1106, at p. 1103. In general, minimum inhibitory concentration (MIC) susceptibility testing followed procedures recommended by the National Committee for Clinical Laboratory Standards (NCCLS^1-2) or followed the descriptions described below:
Neisseria gonorrhoeae strains were grown on Chocolate Agar II plates (BBL—Becton Dickinson Microbiology Systems, Cockeysville, Md.) and incubated at 35° C. in a humidified 5% CO2 incubator (Form a Scientific, Marietta Ohio). For microbroth dilution MIC testing, N. gonorrhoeae were tested in gonococcal broth (GCB):
Gram stains were also utilized. Permanent Stock Culture Collection
Bacterial stock cultures are stored as frozen suspensions at −70 C. N. gonorrhoeae cultures are suspended in inactivated Horse Serum (Colorado Serum Company, Denver, Colo.) containing 7.5% glucose prior to snap freezing in a dry ice/ethanol bath.
Preparation of Standardized Test Inocula and Plate Inoculation
Frozen stock cultures were used as the initial source of organisms for performing microbroth dilution MIC testing. Stock cultures were passed on their respective growth medium at least one growth cycle (18-24 hours) prior to their use. Bacterial culture suspensions were prepared directly from Chocolate Agar II plates into 10 mL cation-adjusted Mueller-Hinton Broth (CAMHB, BBL, # BB215069). Before use, cultures were adjusted to an optical density value of 1.6-2 on a Perkin-Elmer Lambda EZ150 Spectrophotometer (Wellesley, Mass.) set at a wavelength of 600 nm. Random cultures were plated for validation of actual colony counts. The adjusted cultures were diluted 400-fold (0.25 mL inoculum+100 mL GCB) into gonococcal broth producing a starting inoculum of approximately 5×10^5 cfu/mL. These cultures were inoculated into test plates (100 uL/well) using a Biomek® FX workstation (Beckman Coulter Inc., Fullerton, Calif.). The inoculated plates were placed in stacks of no more than 4 and covered with an empty plate. Plates were incubated for 20-24 hours at 35 C in a humidified CO2 incubator.
Test Compound (“Drug”) Preparation
Drug stock solutions (2 mg/mL in DMSO) were prepared on the day of testing. Drugs were weight corrected for assay content where necessary.
Drug Dilution Tray Preparation
Microbroth dilution stock plates were prepared in two dilution series, 64-0.06 ug drug/mL and 1-0.001 ug drug/mL. For the high concentration series, 200 uL of stock solution (2 mg/mL) was added to duplicate rows of a 96-well plate. This was used as the first well in the dilution series. Serial two-fold decremental dilutions were made using a BioMek FX robot (Beckman Coulter Inc., Fullerton, Calif.) with 10 of the remaining 11 wells, each of which contained 100 uL of the appropriate solvent/diluent. Row 12 contained solvent/diluent only and served as the control. For tube one of the low concentration series, 200 uL of a 31.25 ug/mL stock was added to duplicate rows of a 96-well plate. Serial two-fold dilutions were made as described above.
Daughter plates were spotted (3.2 uL/well) from the stock plates listed above using the BioMek FX robot and were inoculated with organism (100 uL/well) as described previously.
After incubation, the degree of growth in each well was read visually with the aid of a Test Reading Mirror (Dynatech Lab 220-16, Dynex Technologies, Chantilly, Va.). 96-well test plates are read in a darkened room with a single light shining from above. The MIC is the lowest concentration of drug that prevents macroscopically visible growth under the conditions of the test. […] If MIC values in duplicate tests differ by 1 well (two-fold), the […] value is reported. If duplicate tests vary by 2 dilutions (four-fold), the middle value is reported.
On the technique in general: Dilution methods test growth across graded concentrations, often in twofold steps.

The mark [1] stands for this setting: Neisseria gonorrhoeae, read-out: MIC.

Broadly, the MIC is the least concentration at which growth counts as inhibited. With `CCNC(=O)Nc1nc2cc(-c3ccc(C)nc3C)cc(C(=O)NCC)n2n1` [Example 35, 7-(2,6-Dimethyl-pyridin-3-yl)-2-(3-ethyl-ureido)-[1,2,4]triazolo[1,5-a]pyridine-5-carboxylic acid ethyl amide], the MIC under setting [1] came to 8 µg/mL (≈ 21 µM).
As for `CCNC(=O)Nc1nc2cc(-c3ccc(C)cc3)cc(C(=O)NCC)n2n1` [Example 68, 2-(3-Ethyl-ureido)-7-p-tolyl-[1,2,4]triazolo[1,5-a]pyridine-5-carboxylic acid ethylamide], the minimal inhibitory concentration (MIC) under setting [1] was 2 µg/mL (≈ 5.46 µM).
In the case of `CCNC(=O)Nc1nc2cc(-c3ccc4c(c3)CCO4)cc(C(=O)NCC)n2n1` [Example 57, 7-(2,3-Dihydro-benzofuran-5-yl)-2-(3-ethyl-ureido)-[1,2,4]triazolo[1,5-a]pyridine-5-carboxylic acid ethylamide], under setting [1], the MIC was 2 µg/mL (≈ 5.07 µM).
Same read-out and setting: the same measure for `CCNC(=O)Nc1nc2cc(-c3cccnc3)cc(C(=O)N(CC)Cc3ccncc3)n2n1` [Example 88, 2-(3-Ethyl-ureido)-7-pyridin-3-yl-[1,2,4]triazolo[1,5-a]pyridine-5-carboxylic acidethyl-pyridin-4-ylmethyl-amide]: 8 µg/mL (≈ 18 µM).
In turn, `CCNC(=O)Nc1cn2c(C(=O)OCC)cc(-c3ccc(OC)cc3)cc2n1` [Example 118, 2-(3-Ethyl-ureido)-7-(4-methoxy-phenyl)-imidazo[1,2-a]pyridine-5-carboxylic acid ethyl ester] returned a minimal inhibitory concentration (MIC) of over 64.0 µg/mL.
Turning to `CCNC(=O)Nc1nc2cc(-c3ccc(F)c(F)c3)cc(C(=O)NCC)n2n1` [Example 55, 7-(3,4-Difluoro-phenyl)-2-(3-ethyl-ureido)-[1,2,4]triazolo[1,5-a]pyridine-5-carboxylic acid ethylamide], the MIC under setting [1] is 2 µg/mL (≈ 5.15 µM).
Turning to `CCNC(=O)Nc1nc2cc(-c3cccnc3)cc(-c3cnc(C(C)C)s3)n2n1` [Example 140, 1-Ethyl-3-[5-(2-i-propyl-thiazol-5-yl)-7-pyridin-3-yl-[1,2,4]triazolo[1,5-a]pyridin-2-yl]-urea], the minimum inhibitory concentration (MIC) under setting [1] amounted to 64 µg/mL (≈ 157 µM).
`CCNC(=O)Nc1nc2cc(-c3ccccc3C(F)(F)F)cc(C(=O)NCC)n2n1` [Example 82, 2-(3-Ethyl-ureido)-7-(2-trifluoromethyl-phenyl)-[1,2,4]triazolo[1,5-a]pyridine-5-carboxylic acid ethylamide]: the MIC under setting [1] is over 64 µg/mL.
As to `CCNC(=O)Nc1nc2cc(-c3cccc(F)c3)cc(C(=O)NCC)n2n1` [Example 70, 2-(3-Ethyl-ureido)-7-(3-fluoro-phenyl)-[1,2,4]triazolo[1,5-a]pyridine-5-carboxylic acid ethylamide], the MIC under setting [1] came out at 1 µg/mL (≈ 2.7 µM).
For the compound `CCNC(=O)Nc1nc2cc(-c3cccnc3)cc(C(=O)NC3CCN(C(C)C)CC3)n2n1` [Example 41, 2-(3-Ethyl-ureido)-7-pyridin-3-yl-[1,2,4]triazolo[1,5-a]pyridine-5-carboxylic acid (1-isopropyl-piperidin-4-yl)-amide], under setting [1], the MIC came out at 16 µg/mL (≈ 35.5 µM).
For the compound `CCNC(=O)Nc1nc2cc(-c3cccnc3)cc(C(=O)NCc3ccc(OC)c(OC)c3)n2n1` [Example 106, 2-(3-Ethyl-ureido)-7-pyridin-3-yl-[1,2,4]triazolo[1,5-a]pyridine-5-carboxylic acid 3,4-dimethoxy-benzylamide], the minimal inhibitory concentration (MIC) under setting [1] was over 64 µg/mL.
“2-(3-Ethyl-ureido)-7-(4-methoxy-phenyl)-imidazo[1,2-a]pyridine-5-carboxylic acid ethylamide [Example 119]” gave an MIC of 64.0 µg/mL.
`CCNC(=O)Nc1nc2cc(-c3cccnc3OC)cc(C(=O)NCC)n2n1` [Example 31, 2-(3-Ethyl-ureido)-7-(2-methoxy-pyridi-3-yl)-[1,2,4]triazolo[1,5-a]pyridine-5-carboxylic acid ethyl amide] gave a minimal inhibitory concentration (MIC) of 8.00 µg/mL (≈ 20.9 µM).
`CCNC(=O)Nc1nc2cc(-c3cccc(C#N)c3)cc(C(=O)NCC)n2n1` [Example 81, 7-(3-Cyano-phenyl)-2-(3-ethyl-ureido)-[1,2,4]triazolo[1,5-a]pyridine-5-carboxylic acid ethylamide]: the MIC under setting [1] was found to be 2 µg/mL (≈ 5.3 µM).
In turn, “1-(5-Cyclopropylaminomethyl-7-pyridin-3-yl-imidazo[1,2-a]pyridin-2-yl)-3-ethyl-urea [Example 114]” yielded an MIC of 32.0 µg/mL.
Regarding `CCNC(=O)Nc1nc2cc(-c3ccc(OC(C)C)cc3)cc(C(=O)NCC)n2n1` [Example 80, 2-(3-Ethyl-ureido)-7-(4-isopropoxy-phenyl)-[1,2,4]triazolo[1,5-a]pyridine-5-carboxylic acid ethylamide], the MIC under setting [1] is over 64 µg/mL.
On to `CCNC(=O)Nc1nc2cc(-c3ccc(OC)nc3)cc(-c3cnc(C)o3)n2n1` [Example 149, 1-Ethyl-3-[7-(6-methoxy-pyridin-3-yl)-5-(2-methyl-oxazol-5-yl)-[1,2,4]triazolo[1,5-a]pyridin-2-yl]-urea], for which the MIC under setting [1] was determined as 16 µg/mL (≈ 40.7 µM).
As to `CCNC(=O)Nc1nc2cc(-c3cccnc3)cc(C(=O)NC(C)c3ccncc3)n2n1` (stereo not drawn) [Example 93, 2-(3-Ethyl-ureido)-7-pyridin-3-yl-[1,2,4]triazolo[1,5-a]pyridine-5-carboxylic acid (1-pyridin-4-yl-ethyl)-amide], the MIC under setting [1] came to 2 µg/mL (≈ 4.65 µM).
Take `CCNC(=O)Nc1nc2cc(-c3cccnc3)cc(-c3ccc(OC)nc3)n2n1` [Example 142, N-Ethyl-N′-[5-(6-methoxypyridin-3-yl)-7-pyridin-3-yl[1,2,4]triazolo[1,5-a]pyridin-2-yl]urea]: the MIC under setting [1] is 16 µg/mL (≈ 41.1 µM).
Consider `CCNC(=O)Nc1nc2cc(-c3ccc(C(C)C)cc3)cc(C(=O)NCC)n2n1` [Example 61, 2-(3-Ethyl-ureido)-7-(4-isopropyl-phenyl)-[1,2,4]triazolo[1,5-a]pyridine-5-carboxylic acid ethylamide], for which the MIC under setting [1] was found to be 2 µg/mL (≈ 5.07 µM).
With `CCNC(=O)Nc1nc2cc(-c3cccnc3)cc(N(C)C3CCCCC3)n2n1` [Example 137, N-[5-[Cyclohexyl(methyl)amino]-7-pyridin-3-yl[1,2,4]triazolo[1,5-a]pyridin-2-yl]-N′-ethylurea], the MIC under setting [1] was determined as 32 µg/mL (≈ 81.3 µM).
Turning to `CCNC(=O)Nc1nc2cc(-c3cccnc3)cc(C(=O)N(C)C(C)c3ccncc3)n2n1` (stereo not drawn) [Example 86, 2-(3-Ethyl-ureido)-7-pyridin-3-yl-[1,2,4]triazolo[1,5-a]pyridine-5-carboxylic acid methyl-(1-pyridin-4-yl-ethyl)-amide], the MIC under setting [1] was determined as 16 µg/mL (≈ 36 µM).
Consider `CCNC(=O)Nc1nc2cc(-c3cccnc3)cc(C(=O)c3ccccc3)n2n1` [Example 111, 1-(5-Benzoyl-7-pyridin-3-yl-[1,2,4]triazolo[1,5-a]pyridine-2-yl)-3-ethyl-urea], for which the MIC under setting [1] was found to be 8 µg/mL (≈ 20.7 µM).
`CCNC(=O)Nc1nc2cc(-c3cccnc3)cc(-c3cnc(CC)s3)n2n1` [Example 123, 1-Ethyl-3-[5-(2-ethyl-thiazol-5-yl)-7-pyridin-3-yl-[1,2,4]triazolo[1,5-a]pyridin-2-yl]-urea]: under setting [1], the MIC was over 64 µg/mL.
Take `CCNC(=O)c1cc(-c2cccnc2)cc2nc(NS(C)(=O)=O)nn12` [Example 147, 2-N-Methylsulfonylamino-7-pyridin-3-yl-[1,2,4]triazolo[1,5-a]pyridin-5-carboxylic acid ethyl amide]: the MIC came to 4.00 µg/mL (≈ 11.1 µM).
For the compound `CCNC(=O)Nc1nc2cc(-c3cccnc3)cc(C(C)=O)n2n1` [Example 26, N-(5-Acetyl-7-pyridin-3-yl[1,2,4]triazolo[1,5-a]pyridin-2-yl)-N′-ethylurea], under setting [1], the MIC came out at 1 µg/mL (≈ 3.08 µM).
Consider `CCNC(=O)Nc1nc2cc(-c3cccnc3)cc(C(=O)NCC(C)(C)C)n2n1` [Example 43, 2-(3-Ethyl-ureido)-7-pyridin-3-yl-[1,2,4]triazolo[1,5-a]pyridine-5-carboxylic acid (2,2-dimethyl-propyl)-amide], for which the MIC under setting [1] was over 64 µg/mL.
